Assay results taken from ChEMBL document CHEMBL4818987, “Recent advances of podophyllotoxin/epipodophyllotoxin hybrids in anticancer activity, mode of action, and structure-activity relationship: An update (2010-2020)” (Eur J Med Chem, 2020).

How the values were obtained:
[1] = test system: A549; experiment: Antiproliferative activity against human A549 cells incubated for 48 hrs by MTT assay; format: functional, cell-based; conditions: A549, 48 h
[2] = test system: HeLa; experiment: Potency index, ratio of etoposide IC50 to test compound IC50 for antiproliferative activity against human HeLa cells; format: functional
[3] = test system: Huh-7; experiment: Antiproliferative activity against human Huh7 cells incubated for 48 hrs by MTT assay; format: functional, cell-based; conditions: Huh-7, 48 h
[4] = test system: Huh-7; experiment: Potency index, ratio of etoposide IC50 to test compound IC50 for antiproliferative activity against human Huh-7 cells; format: functional
[5] = test system: BGC-823; experiment: Potency index, ratio of etoposide IC50 to test compound IC50 for antiproliferative activity against human BGC-823 cells; format: functional
[6] = test system: A549; experiment: Potency index, ratio of etoposide IC50 to test compound IC50 for antiproliferative activity against human A549 cells; format: functional
[7] = test system: MCF7; experiment: Potency index, ratio of etoposide IC50 to test compound IC50 for antiproliferative activity against human MCF7 cells; format: functional
[8] = test system: BGC-823; experiment: Antiproliferative activity against human BGC-823 cells incubated for 48 hrs by MTT assay; format: functional, cell-based; conditions: BGC-823, 48 h
[9] = test system: MCF7; experiment: Antiproliferative activity against human MCF7 cells incubated for 48 hrs by MTT assay; format: functional, cell-based; conditions: MCF7, 48 h
[10] = test system: K562/A02; experiment: Cytotoxicity against human K562/A02 cells by MTT assay; format: functional, cell-based
[11] = test system: K562; experiment: Cytotoxicity against human K562 cells by MTT assay; format: functional, cell-based
[12] = test system: L02; experiment: Cytotoxicity against human L02 cells; format: cell-based
[13] = Selectivity ratio of IC50 for African green monkey Vero cells to IC50 for human Calu-1 cells; format: toxicity; conditions: Vero cells / Calu-1 cells, read-out: Ratio IC50
[14] = test system: Calu-1; experiment: Antiproliferative activity against human Calu-1 cells incubated for 24 hrs by MTT assay; format: functional, cell-based; conditions: Calu-1, 24 h
[15] = test system: Vero; experiment: Cytotoxicity against African green monkey Vero cells; format: cell-based; conditions: Chlorocebus sabaeus
[16] = Selectivity ratio of IC50 for human L02 cells to IC50 for human Calu-1 cells; format: toxicity; conditions: L02 cells / Calu-1 cells, read-out: Ratio IC50
[17] = Selectivity ratio of IC50 for African green monkey Vero cells to IC50 for human A549 cells; format: toxicity; conditions: read-out: Ratio IC50
[18] = test system: HeLa; experiment: Antiproliferative activity against human HeLa cells incubated for 24 hrs by MTT assay; format: functional, cell-based
[19] = Selectivity ratio of IC50 for human L02 cells to IC50 for human A549 cells; format: toxicity; conditions: read-out: Ratio IC50
[20] = Selectivity ratio of IC50 for human L02 cells to IC50 for human HeLa cells; format: toxicity; conditions: read-out: Ratio IC50
[21] = Selectivity ratio of IC50 for African green monkey Vero cells to IC50 for human HeLa cells; format: toxicity; conditions: read-out: Ratio IC50
[22] = test system: A549; experiment: Antiproliferative activity against human A549 cells incubated for 24 hrs by MTT assay; format: functional, cell-based; conditions: A549, 24 h
[23] = test system: L02; experiment: Cytotoxicity against human HL7702 cells incubated for 48 hrs by MTT assay; format: cell-based; conditions: L02, 48 h
[24] = test system: HepG2; experiment: Antiproliferative activity against human HepG2 cells incubated for 48 hrs by MTT assay; format: functional, cell-based; conditions: HepG2, 48 h
[25] = Cytotoxicity against human C918 cells incubated for 72 hrs by CCK8 assay; format: functional, cell-based; conditions: C918, 72 h
[26] = Cytotoxicity against human MUM-2B cells incubated for 72 hrs by CCK8 assay; format: functional, cell-based
[27] = test system: K562/VCR; experiment: Cytotoxicity against human K562/VCR cells incubated for 72 hrs by CCK8 assay; format: functional, cell-based
[28] = test system: K562; experiment: Cytotoxicity against human K562 cells incubated for 72 hrs by CCK8 assay; format: functional, cell-based; conditions: K562, 72 h
[29] = test system: K562; experiment: Antiproliferative activity against human K562 cells incubated for 72 hrs by CCK8 assay; format: functional, cell-based; conditions: K562, 72 h
[30] = test system: K562/Adr; experiment: Potency index, ratio of etoposide IC50 to test compound IC50 for antiproliferative activity against human K562/ADM cells; format: functional
[31] = test system: K562; experiment: Potency index, ratio of etoposide IC50 to test compound IC50 for antiproliferative activity against human K562 cells; format: functional
[32] = test system: K562/Adr; experiment: Antiproliferative activity against human K562/ADR cells incubated for 72 hrs by CCK8 assay; format: functional, cell-based
[33] = Resistance index, ratio of IC50 for human K562/AO2 cells to IC50 for human K562 cells; format: functional
[34] = test system: HeLa; experiment: Cytotoxicity against human HeLa cells by MTT assay; format: functional, cell-based

**Q.** For `COc1cc([C@@H]2c3cc4c(cc3[C@@H](Nc3ncccc3F)[C@H]3COC(=O)[C@H]23)OCO4)cc(OC)c1O`, which IC50 [1] is on record?
**A.** 60 nM

**Q.** And the “Ratio IC50” value [2]?
**A.** 3.3

**Q.** And the IC50 [3]?
**A.** 60 nM

**Q.** What about the “Ratio IC50” value [4] of the same molecule?
**A.** 3.3

**Q.** What about the “Ratio IC50” value [5] of the same molecule?
**A.** 3.3

**Q.** And the “Ratio IC50” value [6]?
**A.** 3.3

**Q.** What about the “Ratio IC50” value [7] of the same molecule?
**A.** 3.3

**Q.** And the IC50 [8]?
**A.** 60 nM

**Q.** What about the IC50 [9] of the same molecule?
**A.** 60 nM

**Q.** Which results are given for `COc1cc([C@@H]2c3cc4c(cc3[C@@H](NC(=O)C(=O)c3c[nH]c5ccc(C(=O)NC(C)C)cc35)[C@H]3COC(=O)[C@H]23)OCO4)cc(OC)c1OC`?
**A.** IC50 [10]: 1270 nM; IC50 [11]: 1270 nM

**Q.** For `COc1cc([C@@H]2c3cc4c(cc3[C@H](OC(=O)CCCCC3CCSC(c5ccc(C(F)(F)F)cc5)S3)[C@H]3COC(=O)[C@H]23)OCO4)cc(OC)c1OC` (stereo partly specified), which IC50 [12] is on record?
**A.** > 93800 nM

**Q.** And the selectivity ratio [13]?
**A.** ≥ 9.7

**Q.** And the IC50 [14]?
**A.** 2680 nM

**Q.** What about the IC50 [15] of the same molecule?
**A.** > 93800 nM

**Q.** What about the selectivity ratio [16] of the same molecule?
**A.** ≥ 9.7

**Q.** What about the selectivity ratio [17] of the same molecule?
**A.** ≥ 9.7

**Q.** And the IC50 [18]?
**A.** 2680 nM

**Q.** And the selectivity ratio [19]?
**A.** ≥ 9.7

**Q.** And the selectivity ratio [20]?
**A.** ≥ 9.7

**Q.** What about the selectivity ratio [21] of the same molecule?
**A.** ≥ 9.7

**Q.** What about the IC50 [22] of the same molecule?
**A.** 2680 nM

**Q.** Which IC50 [1] does the source give for `COc1cc([C@@H]2c3cc4c(cc3[C@@H](Sc3ncnc5nc[nH]c35)[C@H]3COC(=O)[C@H]23)OCO4)cc(OC)c1OC` here?
**A.** 300 nM

**Q.** What about the IC50 [23] of the same molecule?
**A.** 300 nM

**Q.** And the IC50 [24]?
**A.** 300 nM

**Q.** What about the IC50 [8] of the same molecule?
**A.** 300 nM

**Q.** Which IC50 [25] does the source give for `COc1cc(/C=C/c2ccc(OCCC(=O)O[C@H]3c4cc5c(cc4[C@@H](c4cc(OC)c(OC)c(OC)c4)[C@H]4C(=O)OC[C@@H]43)OCO5)cc2)cc(OC)c1` here?
**A.** 81 nM

**Q.** What about the IC50 [26] of the same molecule?
**A.** 81 nM

**Q.** Which IC50 [27] does the source give for `COc1cc([C@@H]2c3cc4c(cc3[C@H](OC(=O)c3ccc5cc[nH]c5c3)[C@H]3COC(=O)[C@H]23)OCO4)cc(OC)c1OC` here?
**A.** 81 nM

**Q.** And the IC50 [28]?
**A.** 81 nM

**Q.** Which IC50 [12] does the source give for `COc1cc([C@@H]2c3cc4c(cc3[C@H](OC(=O)CCCCC3CCSC(c5cccc(C(F)(F)F)c5)S3)[C@H]3COC(=O)[C@H]23)OCO4)cc(OC)c1OC` (stereo partly specified) here?
**A.** > 93800 nM

**Q.** What about the selectivity ratio [13] of the same molecule?
**A.** ≥ 9.7

**Q.** What about the IC50 [14] of the same molecule?
**A.** 2680 nM

**Q.** And the IC50 [15]?
**A.** > 93800 nM

**Q.** And the selectivity ratio [16]?
**A.** ≥ 9.7

**Q.** What about the selectivity ratio [17] of the same molecule?
**A.** ≥ 9.7

**Q.** And the IC50 [18]?
**A.** 2680 nM

**Q.** And the selectivity ratio [19]?
**A.** ≥ 9.7

**Q.** What about the selectivity ratio [20] of the same molecule?
**A.** ≥ 9.7

**Q.** What about the selectivity ratio [21] of the same molecule?
**A.** ≥ 9.7

**Q.** And the IC50 [22]?
**A.** 2680 nM

**Q.** What does the source list for `COc1cc([C@@H]2c3cc4c(cc3[C@H](OCC(=O)N3C(=O)C(=O)c5ccc(Cl)cc53)[C@H]3COC(=O)[C@H]23)OCO4)cc(OC)c1OC`?
**A.** IC50 [29]: 19 nM; Ratio IC50 [30]: 8.8; Ratio IC50 [31]: 8.8; IC50 [32]: 19 nM

**Q.** For `COc1cc([C@@H]2c3cc4c(cc3[C@@H](c3c[nH]c5ccc(OCc6ccc(C(C)(C)C)cc6)cc35)[C@H]3COC(=O)[C@H]23)OCO4)cc(OC)c1OC`, which “Ratio IC50” value [33] is on record?
**A.** 0.004

**Q.** And the IC50 [10]?
**A.** 289 nM

**Q.** And the IC50 [11]?
**A.** > 260 nM

**Q.** And the IC50 [34]?
**A.** > 260 nM

**Q.** What does the source list for `COc1cc([C@@H]2c3cc4c(cc3[C@H](OC(=O)Cc3c[nH]c5ccccc35)[C@H]3COC(=O)[C@H]23)OCO4)cc(OC)c1OC`?
**A.** IC50 [27]: 202 nM; IC50 [28]: 43 nM
